Source: patent publication US20170232083A1, “METHODS OF DIAGNOSIS AND TREATMENT OF CELIAC DISEASE IN CHILDREN” (priority 2014, published 2017)

Tested on: PBMC (polyclonal gluten-specific T cells) of paediatric and adult CD patients
Test: IFN-γ ELISpot of PBMC after 3 day oral wheat challenge (SFU, % of maximal peptide response, dominance scores, EC50; Examples 5-6)
Format: cell-based, human
Conditions: for IFN-γ ELISpot response: after oral wheat challenge; for Cross-reactive T cell response: following wheat challenge
[1] = patient A, 11-17 yrs, cut-off 10 SFU
[2] = patient E, H, 11-17 yrs, cut-off 10 SFU
[3] = patient F, 11-17 yrs, cut-off 10 SFU
[4] = patient G, 11-17 yrs, cut-off 10 SFU
[5] = patient H (HLA-DQ2.5 homozygote), 3-5yrs, cut-off 10 SFU
[6] = patient H, 11-17 yrs, cut-off 10 SFU
[7] = patient ID not given, 11-17 yrs, cut-off 10 SFU
[8] = patient N, 3-5yrs, cut-off 10 SFU
[9] = patient P, 11-17 yrs, cut-off 21.6 SFU
[10] = patient Q, 11-17 yrs, cut-off 10 SFU
[11] = patient U, H, 11-17 yrs, cut-off 10 SFU
[12] = patient V, 6-10 yrs, cut-off 10 SFU
[13] = patient Y, 6-10 yrs, cut-off 10 SFU
[14] = patient eleven, 6-10 yrs, cut-off 10 SFU
[15] = patient four, 3-5yrs, cut-off 10 SFU
[16] = patient seven, 6-10 yrs, cut-off 10.5 SFU
[17] = patient ten, 3-5yrs, cut-off 10 SFU
[18] = patient three, 6-10 yrs, cut-off 10.5 SFU
[19] = patient twelve, 11-17 yrs, cut-off 10 SFU
[20] = patient two, 3-5yrs, cut-off 10 SFU

PFPQQPQQPFPQP was tested, and the “IFN-γ ELISpot response” value [1] was 0 SFU, the “IFN-γ ELISpot response” value [2] was 0 SFU and the “IFN-γ ELISpot response” value [3] was 1 SFU. The “IFN-γ ELISpot response” value [4] was 0 SFU, the “IFN-γ ELISpot response” value [5] was 4 SFU and the “IFN-γ ELISpot response” value [6] was 2 SFU. The “IFN-γ ELISpot response” value [7] was 0 SFU, the “IFN-γ ELISpot response” value [8] was 2 SFU and the “IFN-γ ELISpot response” value [9] was 14 SFU. For the same sequence, the “IFN-γ ELISpot response” value [10] was 9 SFU, the “IFN-γ ELISpot response” value [11] was 2 SFU and the “IFN-γ ELISpot response” value [12] was 3 SFU. The “IFN-γ ELISpot response” value [13] was 6 SFU, the “IFN-γ ELISpot response” value [14] was 3 SFU and the “IFN-γ ELISpot response” value [15] was 0 SFU. The “IFN-γ ELISpot response” value [16] was 1 SFU, the “IFN-γ ELISpot response” value [17] was 12 SFU and the “Significant response as percentage of maximal peptide SFU” value (“Significant response as percentage” for short) (patient ten, max peptide 14.5 SFU) was “+ (>70% = +)”. For the same sequence, the “IFN-γ ELISpot response” value [18] was 5 SFU, the “IFN-γ ELISpot response” value [19] was 2 SFU and the “IFN-γ ELISpot response” value [20] was 3 SFU.
In the case of PIPQQPQQPFPLQ, the “IFN-γ ELISpot response” value [1] is reported as 6 SFU, the “IFN-γ ELISpot response” value [2] is reported as 5 SFU and the “IFN-γ ELISpot response” value [3] is reported as 5 SFU. The “IFN-γ ELISpot response” value [4] was 2 SFU, the “IFN-γ ELISpot response” value [5] was 0 SFU and the “IFN-γ ELISpot response” value [6] was 10 SFU. For the same sequence, the “Significant response as percentage” value (patient H, max peptide 17 SFU) was “′′′ (41-70% = ′′′)”, the “IFN-γ ELISpot response” value [7] was 3 SFU and the “Significant response as percentage” value (patient II, max peptide 15 SFU) was “+ (>70% = +)”. The “IFN-γ ELISpot response” value [8] was 1 SFU, the “IFN-γ ELISpot response” value [9] was 9 SFU and the “IFN-γ ELISpot response” value [10] was 13 SFU. The “Significant response as percentage” value (patient Q, max peptide 97 SFU) was “′ (11-20% = ′)”, the “IFN-γ ELISpot response” value [11] was 4 SFU and the “IFN-γ ELISpot response” value [12] was 9 SFU. The “IFN-γ ELISpot response” value [13] was 5 SFU, the “IFN-γ ELISpot response” value [14] was 4 SFU and the “IFN-γ ELISpot response” value [15] was 1 SFU. For the same sequence, the “IFN-γ ELISpot response” value [16] was 14 SFU, the “Significant response as percentage” value (patient seven, max peptide 27 SFU) was “′′′ (41-70% = ′′′)” and the “IFN-γ ELISpot response” value [17] was 7 SFU. For the same sequence, the “IFN-γ ELISpot response” value [18] was 1 SFU, the “IFN-γ ELISpot response” value [19] was 1 SFU and the “IFN-γ ELISpot response” value [20] was 2 SFU.
With PQQPQQSFPQQQQPA the “IFN-γ ELISpot response” value [4] was 11 SFU, the “Significant response as percentage” value (patient G, max peptide 15 SFU) was “+ (>70% = +)” and the “IFN-γ ELISpot response” value [6] was 1 SFU. For the same sequence, the “IFN-γ ELISpot response” value [7] was 3 SFU, the “Significant response as percentage” value (patient K, max peptide 53 SFU) was “′′ (21-40% = ′′)” and the “IFN-γ ELISpot response” value [9] was 4 SFU. The “IFN-γ ELISpot response” value [10] was 1 SFU, the “IFN-γ ELISpot response” value [11] was 2 SFU and the “IFN-γ ELISpot response” value [12] was 10 SFU. For the same sequence, the “Significant response as percentage” value (patient V, max peptide 35 SFU) was “′′ (21-40% = ′′)”, the “IFN-γ ELISpot response” value [13] was 3 SFU and the “IFN-γ ELISpot response” value [14] was 0 SFU. For the same sequence, the “IFN-γ ELISpot response” value [15] was 0 SFU, the “IFN-γ ELISpot response” value [16] was 10 SFU and the “IFN-γ ELISpot response” value [17] was 7 SFU. The “IFN-γ ELISpot response” value [18] was 1 SFU and the “IFN-γ ELISpot response” value [20] was 0 SFU.
For QEFPQPEQPFPQQ, the “Cross-reactive T cell response” value (subject A, 11-17yrs) was 4 SFU, the “Significant response as a percentage of maximal peptide SFU” value (“Significant response as a percentage” for short) (subject D, 11-17yrs) was “′′′ (41-70% = ′′′)” and the “Cross-reactive T cell response” value (subject D, 11-17yrs) was 15 SFU. The “Significant response as a percentage” value (subject E, 11-17yrs) was “′ (11-20% = ′)”, the “Cross-reactive T cell response” value (subject E, 11-17yrs) was 30 SFU and the “Significant response as a percentage” value (subject F, 11-17yrs) was “′′ (21-40% = ′′)”. For the same sequence, the “Cross-reactive T cell response” value (subject F, 11-17yrs) was 38 SFU, the “Cross-reactive T cell response” value (subject G, 11-17yrs) was 4 SFU and the “Cross-reactive T cell response” value (subject H) was 1 SFU. For the same sequence, the “Cross-reactive T cell response” value (subject I (3-5yrs/6-10yrs part)) was 8 SFU, the “Significant response as a percentage” value (subject J) was “′′′ (41-70% = ′′′)” and the “Cross-reactive T cell response” value (subject J (3-5yrs/6-10yrs part)) was 93 SFU. The “Significant response as a percentage” value (subject K) was “′′ (21-40% = ′′)”, the “Cross-reactive T cell response” value (subject K (3-5yrs/6-10yrs part)) was 21 SFU and the “Cross-reactive T cell response” value (subject P, 11-17yrs) was 7 SFU. The “Significant response as a percentage” value (subject Q, 11-17yrs) was “′′′ (41-70% = ′′′)”, the “Cross-reactive T cell response” value (subject Q, 11-17yrs) was 44 SFU and the “Significant response as a percentage” value (subject T, 11-17yrs) was “+ (>70% = +)”. For the same sequence, the “Cross-reactive T cell response” value (subject T, 11-17yrs) was 67 SFU, the “Significant response as a percentage” value (subject U, 11-17yrs) was “′′ (21-40% = ′′)” and the “Cross-reactive T cell response” value (subject U, 11-17yrs) was 23 SFU. The “Significant response as a percentage” value (subject V) was “′′ (21-40% = ′′)”, the “Cross-reactive T cell response” value (subject V (3-5yrs/6-10yrs part)) was 11 SFU and the “Cross-reactive T cell response” value (subject W (3-5yrs/6-10yrs part)) was 3 SFU. The “Cross-reactive T cell response” value (subject Y (3-5yrs/6-10yrs part)) was 2 SFU, the “Significant response as a percentage” value (subject five) was “+ (>70% = +)” and the “Cross-reactive T cell response” value (subject five (3-5yrs/6-10yrs part)) was 36 SFU. For the same sequence, the “Cross-reactive T cell response” value (subject nine, 11-17yrs) was 1 SFU, the “Cross-reactive T cell response” value (subject seven (3-5yrs/6-10yrs part)) was 2 SFU and the “Cross-reactive T cell response” value (subject six (3-5yrs/6-10yrs part)) was 6 SFU. For the same sequence, the “Cross-reactive T cell response” value (subject ten (3-5yrs/6-10yrs part)) was 8 SFU, the “Significant response as a percentage” value (subject two) was “′′′ (41-70% = ′′′)” and the “Cross-reactive T cell response” value (subject two (3-5yrs/6-10yrs part)) was 30 SFU.
For QFIQPEQPFPQQ, the “IFN-γ ELISpot response” value [1] was 0 SFU, the “IFN-γ ELISpot response” value [2] was 31 SFU and the “Significant response as percentage” value (patient E, max peptide 224 SFU) was “′ (11-20% = ′)”. The “IFN-γ ELISpot response” value [3] was 28 SFU, the “Significant response as percentage” value (patient F, max peptide 178 SFU) was “′ (11-20% = ′)” and the “IFN-γ ELISpot response” value [4] was 2 SFU. The “IFN-γ ELISpot response” value [5] was 8 SFU, the “IFN-γ ELISpot response” value [6] was 3 SFU and the “IFN-γ ELISpot response” value [7] was 21 SFU. For the same sequence, the “Significant response as percentage” value (patient ID not given, max peptide 95 SFU) was “′′ (21-40% = ′′)”, the “Significant response as percentage” value (patient II, max peptide 15 SFU) was “+ (>70% = +)” and the “Significant response as percentage” value (patient J, max peptide 196 SFU) was “′ (11-20% = ′)”. For the same sequence, the “Significant response as percentage” value (patient K, max peptide 53 SFU) was “′′ (21-40% = ′′)”, the “IFN-γ ELISpot response” value [8] was 6 SFU and the “IFN-γ ELISpot response” value [9] was 8 SFU. The “IFN-γ ELISpot response” value [10] was 25 SFU, the “Significant response as percentage” value (patient Q, max peptide 97 SFU) was “′′ (21-40% = ′′)” and the “IFN-γ ELISpot response” value [11] was 13 SFU. The “Significant response as percentage” value (patient U, max peptide 81 SFU) was “′ (11-20% = ′)”, the “IFN-γ ELISpot response” value [12] was 19 SFU and the “Significant response as percentage” value (patient V, max peptide 35 SFU) was “′′′ (41-70% = ′′′)”. The “IFN-γ ELISpot response” value [13] was 3 SFU, the “IFN-γ ELISpot response” value [14] was 0 SFU and the “IFN-γ ELISpot response” value [15] was 6 SFU. The “IFN-γ ELISpot response” value [16] was 8 SFU, the “IFN-γ ELISpot response” value [17] was 6 SFU and the “IFN-γ ELISpot response” value [18] was 30 SFU. For the same sequence, the “IFN-γ ELISpot response” value [19] was 6 SFU and the “IFN-γ ELISpot response” value [20] was 7 SFU.
